# Activity calls are given as the source filed them. No cut-off for these calls is given here.
# How the values were obtained:
# Botrytis cinerea [1] = test: Antifungal activity against Botryotinia fuckeliana infected grape assessed as decrease in lesion diameter at 1 mg/ml applied by dipping 24 hr prior to infection measured after 4 days at 4 degC relative to untreated-control; format: functional, organism-based
# Botrytis cinerea [2] = test: Growth inhibition of Botryotinia fuckeliana at 0.5 mg/ml after 4 days relative to control; format: functional; conditions: 96 h, read-out: GI
# Botrytis cinerea [3] = test: Antifungal activity against Botryotinia fuckeliana infected grape assessed as decrease in lesion diameter at 3 mg/ml applied by dipping 24 hr prior to infection measured after 3 days at 4 degC relative to untreated-control; format: functional, organism-based
# Botrytis cinerea [4] = test: Antifungal activity against Botryotinia fuckeliana infected grape assessed as decrease in lesion diameter at 1 to 3 mg/ml applied by dipping 24 hr prior to infection measured after 5 to 7 days at 4 degC relative to untreated-control; format: functional, organism-based
# Botrytis cinerea [5] = test: Antifungal activity against Botryotinia fuckeliana infected grape assessed as decrease in lesion diameter at 3 mg/ml applied by dipping 24 hr prior to infection measured after 4 days at 4 degC relative to untreated-control; format: functional, organism-based
# Botrytis cinerea [6] = test: Growth inhibition of Botryotinia fuckeliana at 4 mg/ml after 4 days relative to control; format: functional; conditions: 96 h, read-out: GI
# Botrytis cinerea [7] = test: Antifungal activity against Botryotinia fuckeliana infected in grape assessed as lesion diameter at 1 mg/ml applied by dipping 24 hr prior to infection measured after 4 days at 24 degC (reference value: 30.56 mm); format: functional
# Botrytis cinerea [8] = test: Antifungal activity against Botryotinia fuckeliana infected grape assessed as decrease in lesion diameter at 3 mg/ml applied by dipping 24 hr prior to infection measured after 3 days at 24 degC relative to untreated-control; format: functional, organism-based
# Botrytis cinerea [9] = test: Growth inhibition of Botryotinia fuckeliana at 1 mg/ml after 4 days relative to control; format: functional; conditions: 96 h, read-out: GI
# Botrytis cinerea [10] = test: Antifungal activity against Botryotinia fuckeliana assessed as mycelial growth after 4 days; format: functional, organism-based; conditions: 96 h
# Botrytis cinerea [11] = test: Antifungal activity against Botryotinia fuckeliana infected grape assessed as lesion diameter at 3 mg/ml applied by dipping 24 hr prior to infection measured after 4 days at 24 degC (reference value: 30.56 mm); format: functional
# Botrytis cinerea [12] = test: Growth inhibition of Botryotinia fuckeliana at 5 mg/ml after 4 days relative to control; format: functional; conditions: 96 h, read-out: GI
# Botrytis cinerea [13] = test: Antifungal activity against Botryotinia fuckeliana assessed as mycelial growth at 3 mg/ml after 4 days (reference value: 85 mm); format: functional
# Botrytis cinerea [14] = test: Antifungal activity against Botryotinia fuckeliana assessed as mycelial growth at 2 mg/ml after 4 days (reference value: 85 mm); format: functional
structure (smiles),measurement,setting,value
CSC(=O)c1cccc2nnsc12 [ACIBENZOLAR-S-METHYL],Activity,Botrytis cinerea [1],Active
same,inhibition of growth at 500 µg/mL,Botrytis cinerea [2],16.3%
same,Activity,Botrytis cinerea [3],Active
same,Activity,Botrytis cinerea [4],Active
same,Activity,Botrytis cinerea [5],Active
same,inhibition of growth at 4000 µg/mL,Botrytis cinerea [6],55.6%
same,Activity,Botrytis cinerea [7],17.94 mm
same,Activity,Botrytis cinerea [8],Active
same,inhibition of growth at 1000 µg/mL,Botrytis cinerea [9],23.1%
same,EC50,Botrytis cinerea [10],3440 µg/mL
same,Activity,Botrytis cinerea [11],16.99 mm
same,inhibition of growth at 5000 µg/mL,Botrytis cinerea [12],66.2%
same,Activity,Botrytis cinerea [13],44.72 mm
same,Activity,Botrytis cinerea [14],54.26 mm

# Source: ChEMBL document CHEMBL3045978, “Sensitivity of Botrytis cinerea to chitosan and acibenzolar-S-methyl” (Pest Manag Sci, 2010)
